Data set [1] is described as follows: Pharmacokinetic study after intratympanic administration. The conditions noted are these: for plasma exposure after IT injection / perilymph and cochlear epithelium exposure after IT injection: single IT injection; for perilymph and cochlear epithelium exposure after IT injection: MCT and/or poloxamer formulation. The data set is classed as in vivo, rats. As to the method:
Female rats (Charles River) weighing 200-300 g of approximately 12-16 weeks of age served as subjects (N=4 per group). Prior to any procedures, animals were anesthetized using a combination of xylazine (10 mg/kg), ketamine (50 mg/kg), and acepromazine (1 mg/kg) for up to an hour via the intraperitoneal route. If needed, an intraoperative booster was administered intraperitoneal representing a one-tenth of the original dose.
Intratympanic injection—Each animal was positioned so that the head was tilted at an angle to favor injection towards the round window niche. […] Formulations were delivered using a perfusion pump at the rate of 2 μL/sec. Contact with the round window membrane was maintained for 30 minutes by placing the animal in a recumbent position. During the procedure and until recovery, animals were placed on a temperature controlled (40° C.) heating pad until consciousness was regained at which time they were returned to the vivarium.
Perilymph sampling procedure—The skin behind the ear of anesthetized rats was shaved and disinfected with povidone-iodine. An incision was then made behind the ear, and muscles were carefully retracted from over the bulla. A hole was drilled through the bulla using a dental burr so that the middle ear was exposed and accessed. The cochlea and the round window membrane were visualized under a stereo surgical microscope. The basal turn of bulla was cleaned by using small cotton ball. A unique microhole was hand drilled through the bony shell of the cochlea (cochlear capsule) adjacent to the round window. Perilymph (about 2 μL) was then collected using a microcapillary inserted into the cochlear scala tympani. Perilymph samples were added to a vial containing 18 μL of acetonitrile/water, stored at −80° C. until analysis.
Cochlear epithelium sampling procedure—Under a dissection scope, the bulla was opened, and the cochlea was exposed by removing all surrounding muscles, blood vessels and bone tissues. Holding the bulla, the cochlear wall bony structure was removed working from the base to the apex of the cochlea, exposing the organ of Corti. The exposed cochlear epithelium was gently dabbed with cotton swab to remove excess of liquid from tissue, carefully transferred to labelled tube. Each 2-mL plastic tube that contained acid washed 2.8 mm stainless steel beads was pre-weighed. The tubes were reweighed after adding cochlea epithelium and weights were recorded. All cochlea epithelium samples were placed in dry ice immediately after collection and stored at −80° C. prior to analysis.
Plasma sampling procedure—Blood samples were collected by cardiac puncture into labeled micro-tubes, containing lithium heparin as anticoagulant. Plasma were immediately harvested from the blood by centrifugation and collection for supernatants. All plasma samples were stored at −80° C. prior to analysis.
Samples were extracted by protein precipitation, then vortexed and centrifuged. The supernatant was collected and diluted with two folds of water. A high-performance liquid chromatography system (Agilent 1200 series) with Waters Cortecs C18 Plus column (50*4.6 mm, 2.7 μm) were used. The flow rate was set at 0.700 mL/min. A gradient method with an analytical run time of 5 minutes was used. Mobile phase A consisted of 0.01% ammonium formate, 0.03% formic acid in water. Mobile phase B consisted of 0.01% ammonium formate, 0.03% formic acid in acetonitrile: methanol (70:30, v/v). The gradient began with 30% B, stepped to 70% B at 2.75 minutes and held for 1 minute and then stepped back to 30% B to re-equilibrate the column.
Ionizations and detection of analyte and internal standard were performed on a triple quadruple mass spectrometer, API 5500 Q-Trap equipped with Turbo IonSpray@, from SCIEX (Toronto, Canada). Electro spray ionization (ESI) mass spectra was operated in the positive ion mode. Carbutamide was used as the internal standard (IS). […]

Data set [2] can be described thus: Cisplatin binding, % bound.
The subject of data set [3] is cisplatin-induced hearing loss (CIHL). The data set is described as follows: 3-day acute CIHL animal model, ABR thresholds. In kind it is in vivo. The conditions noted are these: 3 days. As to the method:
Study Design includes: […] Formulation was delivered IT unilaterally (right ear) 30 min prior CIS. There was gross visual necropsy observation performed at termination. Tissue collected for CCG evaluation • A: Cis IP/Vehicle P407 • B: Cis IP/STS 16 mg/ml in P407 • C: Cis IP/OMY-150 16 mg/ml in P407 • D: Cis IP/OMY-150 50 mg/ml in P407

The nature of data set [4]: Cisplatin reaction kinetics by HPLC. The conditions noted are these: 50 μM cisplatin + 50 μM of compound (API) in PBS, pH 7.4, 37° C. As to the method: Reaction kinetics between Cisplatin and the compound of interest (nucleophile) were monitored by high performance liquid chromatography. Isocratic separation was achieved using a Waters Spherisorb C8 column (4×250 mm, 5 μm, 80 Å). The flow rate was set to 1.00 mL/min. The mobile phase consisted of 5 mM Sodium Octanesulfonate+5 mM Tetrabutyl Ammonium Hydrogen Sulfate+20 mM Potassium Dihydrogen Phosphate adjusted to pH 5.9. Detection was performed at a wavelength of 210 nm.
Reactions were conducted at equimolar concentrations in buffered aqueous media and held at 37° C. Rate constants (k) were determined by monitoring the disappearance of Cisplatin as a function of time.

Data set [5] concerns outer hair cells (OHCs) and inner hair cells (IHCs). The data set is described as follows: Cochlear explant model: hair cell protection against cisplatin. In kind it is cell-based, Sprague-Dawley rats. As to conditions: for protection of hair cells against cisplatin: 1.5 hour pretreatment followed by co-treatment at different concentrations with 10 μM cisplatin; for EC100: Rattus norvegicus, read-out: Ex-vivo Efficacy Conc. for complete protection of hair cells (uM). An excerpt: (§1) For hair cell and spiral ganglion assessment, postnatal Sprague-Dawley rats (P2-P4) of both sexes are anesthetized with isoflurane and decapitated. Temporal bones are removed and transferred to a cell culture dish with ice-cold Ca^2+/Mg^2+-containing phosphate-buffered saline (PBS; Invitrogen) or cold HBSS medium enriched with glucose. Under microscopic visualization, the cochlear capsules are carefully removed from the temporal bone using forceps and transferred to a new cell culture dish containing ice-cold PBS. The cochleae are then dissected from the cochlear capsule using fine forceps. The stria vascularis is removed from the cochlear tissue and discarded. Dissected cochlear epithelia are transferred to permeable membrane inserts (Millicell organotypic culture plate inserts, Millipore) which are placed into 1 mL of culture media (Dulbecco's modified Eagle's medium (high glucose, Glutamax, 25 mM HEPES) with 10% fetal bovine serum, 1% N2 supplement and 10 units/ml penicillin) in a 6-well plate. Up to 4 cochleae are placed onto each membrane. Explants are placed in a humidified chamber with 5% CO2 at 37° C. for a minimum of 18 hours prior to treatment. Cultures are then pre-treated with test compounds and returned to the incubator for a period of 10 minutes to 48 hours.
(§2) Following the incubation period, cochlear samples are fixed in 4% paraformaldehyde for a minimum of 30 minutes after treatment then permeabilized in 0.5% Triton in PBS (PBST) for 1 hour, followed by overnight incubation at 4° C. in primary antibodies in 10% goat or donkey serum (Sigma). Samples are then rinsed in PBST 2 times for 10 minutes each then incubated in alexa-488 conjugated secondary antibodies for 2 hours at room temperature or overnight at 4° C. in 10% goat or donkey serum (Sigma). Samples are then rinsed 2 times in PBS then incubated in DAPI (1:3000) in PBS for 5 minutes prior to mounting on slides. To evaluate the otoprotective efficacy of the compounds, cochlear samples are immunostained using combination of antibodies generated against markers specific for hair cells (Myosin V1, Myosin VIIA, Parvalbumin, etc.), SGNs (TUJ1, Neurofilament, etc.), f-actin, cell death, cell stress, etc. as well as a nuclear stain to identify cell nuclei.
(§3) Immunostained samples are mounted on glass slides and imaged with an LSM880 laser scanning confocal microscope (Zeiss) or an Operetta high-content imager (Perkin Elmer). The entire explant is imaged for all antibody and nuclear labeling in a 3-dimensional X-Y-Z plane in which the Z-plane consists of a stack imaged at intervals of 0.5-5 μm. The total length of the organ of Corti in each explant is then determined and is divided into 4 equal length regions. Basal, middle and apical hair cells or SGNS are counted at the regions approximately 25%, 50% or 75% of the total cochlear length from the base, respectively. Hair cell survival is determined by counting the number of inner and outer hair cells at these three different regions (base, middle and apex) in each cochlear explant and determining the number of missing/dead hair cells per cochlear region. Hair cell counts are obtained by placing a 200 μm length scale bar parallel to the rows of hair cells at each region and manually counting the total number of outer hair cells (OHCs) and inner hair cells (IHCs) within the 200 μm. Similarly, to evaluate the health and survival of SGNs, the density of SGN fibers or soma is also determined per region by manual counting for same region selected for counting hair cells. Nuclear staining is analyzed to confirm the presence or absence of cell nuclei and to evaluate nuclear health. Image analysis and quantification is performed using Zeiss Zen Blue software, or Perkin Elmer Columbus software.
(§4) Neonatal (P2-P4) Sprague-Dawley rats were used for the experiments described here. Animals were euthanized following anesthesia using isoflurane. Rat cochleae were then dissected in cold HBSS medium enriched with glucose. […]

Data set [6] deals with spiral ganglion neurons (SGNs). The experiment in a line: Cochlear explant model: spiral ganglion neuron protection against cisplatin. In kind it is cell-based, Sprague-Dawley rats.
From the text: as §1, §2, §3, §4

A further data set relates to stria vascularis cells. The experiment in a line: Dissociated strial cultures, caspase 3/7 activation with cisplatin. In kind it is cell-based, Sprague-Dawley rats. As to the method: For strial explants, the stria vascularis is isolated from the cochlear tissue and transferred to a clean dish with cell culture media. For dissociated strial cultures, the stria vascularis is pulled off the lateral wall and collected separately. Strial cells are then dissociated using a pipette post-trypsinization and seeded onto Poly-d-lysine or collagen-coated 96-well plates. Cells are grown for 48-72 hours to achieve 80-90% confluency before treatment. […] Following treatment, cells are exposed to the Caspase-Glo 3/7 (Promega) reagent for 30 minutes then […] is read on a plate reader. In addition to the cell culture media described above, strial explants can also be maintained in the following media: MEM with Earle's salts, 15 mM HEPES buffer, 2 mM L-glutamine, 10 mg/L MEM non-essential amino acids, 2.5 mg/L fungizone, 100 units/ml penicillin, 100 mg/L streptomycin, 400 μg/L hydrocortisone, 5 mg/L transferrin, 2 nM triiodothyronine, 5 mg/L insulin, […], 10 μg/L epidermal growth factor, and 10% fetal bovine serum.
Following cochlear dissection, Reissner's membrane and the lateral wall were separated and the stria vascularis was then removed from the lateral wall. […] After incubation, cells were lysed using the Promega caspase 3/7 Glo kit and the intensity of caspase 3/7 were read using Perkin-Elmer Enspire plate reader.

[7] abbreviates: 16 mg/ml in P407, IT 30 min prior CIS 12 mg/kg (IP).

“Also recorded” adds a separate entry of the source.

With `O=S([O-])([O-])=S.[Na+].[Na+]` [STS, sodium thiosulfate, reference compound], in data set [1], the “In vivo PK in Cochlear Epithelium (24 h after dosing)” value (“In vivo PK in Cochlear Epithelium” below) is given as ~1100 ng/gm CE. Besides, the “Cisplatin Binding % bound (in 30 min) at 1:10 ratio” value in data set [2] was 50%. Besides, the “protection of ABR thresholds” value in data set [3] (setting [7]) was “less protection than in previous studies”. The “k” value in data set [4] was determined as 0.52 M⁻¹ s⁻¹. Moreover, in data set [5] (ex vivo cochlear explants, cisplatin), the “Ex-vivo Efficacy Conc. for complete protection of hair cells” value is 100 µM.

For `O=c1cc(-c2ccccc2)[nH]c(=S)[nH]1` [OMY-150, 6-phenyl-2-thiouracil], in data set [1], the “In vivo PK in Cochlear Epithelium” value was ~1000 ng/gm CE; the “plasma exposure after IT injection” value is “significantly lower (e.g. up to 10 times or more) plasma exposure than OMY-141; also recorded: lower plasma exposure than sodium thiosulfate (STS)”; the “perilymph and cochlear epithelium exposure after IT injection” value is “good perilymph and cochlear epithelium exposure”. In data set [6] (1.5 hour pretreatment followed by co-treatment at different concentrations with 10 μM cisplatin), the “protection of spiral ganglion neurons against cisplatin” value is “complete protection”. For the same compound, in data set [2], the “Cisplatin Binding % bound (in 30 min) at 1:10 ratio” value is listed as 97%. Besides, in data set [3] (setting [7]), the “protection of ABR thresholds” value is listed as “strong protection”. In data set [3] (50 mg/ml in P407, IT 30 min prior CIS 12 mg/kg (IP)), the “protection of ABR thresholds” value is on record as “almost complete recovery”. The “k” value in data set [4] was 0.50 M⁻¹ s⁻¹. For the same compound, in data set [5], the “protection of hair cells against cisplatin” value is “complete protection” and the EC100 came out at 50 µM.

With `CCCc1cc(=O)[nH]c(=S)[nH]1` [OMY-141, 6-propyl-2-thiouracil], in data set [1], the “In vivo PK in Cochlear Epithelium” value was ~300 ng/gm CE; the “plasma exposure after IT injection” value is reported as “some plasma exposure”; the “perilymph and cochlear epithelium exposure after IT injection” value is “good perilymph and cochlear epithelium exposure”. Besides, the “Cisplatin Binding % bound (in 30 min) at 1:10 ratio” value in data set [2] was determined as 95%. The “k” value in data set [4] stood at 10.27 M⁻¹ s⁻¹. For the same compound, in data set [5], the “protection of hair cells against cisplatin” value was “complete protection” and the EC100 is 50 to 100 µM.

As to `O=C(O)c1c[nH]c(=S)[nH]c1=O` [5-carboxy-2-thiouracil], the strial cell protection result in the data set on stria vascularis cells is “good protection”. In addition, in data set [6] (ex-vivo cochlear explants), the SGN protection entry is on record as “good protection”. For the same compound, the “Cisplatin Binding % bound (in 30 min) at 1:10 ratio” value in data set [2] is given as 95%. In addition, the EC100 in data set [5] was 50 to 100 µM. Moreover, the OHC protection entry in data set [5] (ex-vivo cochlear explants) was “good protection”.

The values above are taken from patent publication US20230293524A1, “OTIC FORMULATIONS FOR DRUG-INDUCED OTOTOXICITY” (Spiral Therapeutics Inc, priority 2019, published 2023).
